In test [1] the target is TxtE (Streptomyces scabiei, UniProt C9ZDC6). The experiment in a line: Nitration of fluorinated tryptophan substrates by TxtE. It counts as biochemical, S. scabies 87.22. Also noted: inferred from the pET28 vector and Ni-NTA purification) (C); made in house; host or cells: E. coli BL21 (DE3)-GOLD. On the procedure: (§1) P450 reactions contained 0.5 mM substrate, 1 mM NADP^+, 1 mM glucose, ˜10 units/mL self-prepared glucose dehydrogenase crude extract, 1 mM NOC-5 in 100 μL of Tris-HCl buffer (100 mM, pH 8.0). As the positive control, TxtE reaction was also re-constructed in the above mixture further supplemented with 0.43 μM spinach Fer and 0.33 μM Frd. The reactions were initiated by adding 1.5 μM P450s, and incubated at 20° C., 300 rpm on a thermostat (Eppendorf) for 2 hours. Methanol (200 μl) was then added to stop the reactions. After centrifugation, 10 μl solutions were analyzed by HPLC. […] The flow rate was set as 1.5 ml/min, and the products were detected at 211 nm with a PDA detector. […]
(§2) P450 reactions contained 0.5 mM substrate, 1 mM NADP^+, 1 mM glucose, ˜10 units/mL self-prepared glucose dehydrogenase crude extract, 1 mM NOC-5 [3-(aminopropyl)-1-hydroxy-3-isopropyl-2-oxo-1-triazene] in 100 μL of Tris-HCl buffer (100 mM, pH 8.0). […] After centrifugation, 10 μl solutions were analyzed by HPLC. […] The 4-NO2-l-tryptophan was synthesized in a large-scale enzymatic reaction to establish a standard curve for product quantification. […] NADPH consumption in enzyme reactions was measured at 340 nm (ε=6.22 mM^−1·cm^−1) with a Shimadzu UV2700 dual beam UV-Vis spectrophotometer. […] The quantity of nitrated product was determined by HPLC analysis as described above. […]

Test [2] addresses T1, TxtE-BM3R (UniProt C9ZDC6+P14779).
T1 construct: P450BM3 (CYP102A1) reductase domain BM3R with its Domcut-predicted native linker, from B. megaterium ATCC 14581 (GenBank J04832.1); made in house; host or cells: E. coli BL21 (DE3)-GOLD
Briefly: Nitration of fluorinated tryptophan substrates by TxtE-BM3R. It counts as biochemical, S. scabies 87.22 / B. megaterium ATCC 14581. On the procedure: as §1, §2

For `N[C@@H](Cc1c[nH]c2cccc(F)c12)C(=O)O` [4-F-L-tryptophan], the “overall conversion rate relative to L-tryptophan” value in test [1] and in test [2] was “about 20%” in each case.

(Values after US10550079B2, “Artificial self-sufficient cytochrome P450s” (University of Florida Research Foundation, Incorporated, priority 2015, dated 2020).)
